# Source: PMC7284918, “In-Depth Characterization of EpiIntestinal Microtissue as a Model for Intestinal Drug Absorption and Metabolism in Human” (Pharmaceutics, 2020)
# Experiments:
# SULT [1] = assay: DME activity in EpiIntestinal microtissues: SULT; format: in vitro ADME, human; details: SULT/7-OH-Coumarin, metabolite 7-OH-Coumarin-Sulfat
# Protocol: (§2) For measurements of DME activities in EpiIntestinal microtissues and Caco-2 cells, both were cultured in 96-well Transwell inserts. Drugs (Table 1) were dissolved in the respective solvent at 200x concentration and diluted in a pre-warmed transport buffer. Diluted substrate solution was applied to the apical (100 µL) and basal (250 µL) compartment of the Transwell and incubated at 37 °C and 5% CO2 and 60 rpm continuous shaking. DME activities were determined by monitoring metabolite formation in basal compartment over time (0, 0.5, 1, 2, 3 and 4 h) with LC-MS/MS. […] Chromatographic separation of samples was performed on YMC Triart C18 (1.9 µm, 30 × 2 mm; YMC Europe, Dinslaken, Germany) LC analytical column. Quantification of all metabolites listed in Table 1 was achieved by the use of calibration curves for the individual metabolites with appropriate concentration ranges.
# (§3) A total of 10 µL of the incubation sample were diluted with 90 µL of water containing 10–20% ACN or methanol, 0.1% formic acid and the respective internal standard. To analyze the intracellular metabolite concentration, cells on Transwell inserts were washed twice with ice-cold PBS and stored at −80 °C for 20 min. Afterwards, 150 µL 50% ACN diluted with transport buffer was added to the cells and incubated at room temperature for 30 min. […]
# UGT [2] = assay: DME activity in EpiIntestinal microtissues: UGT; format: in vitro ADME, human; details: UGT/7-OH-Coumarin, metabolite 7-OH-Coumarin-Glucuronid
# Protocol: as §2, §3
# UGT [3] = assay: DME activity in Caco-2: UGT; format: in vitro ADME, human; details: UGT/7-OH-Coumarin, metabolite 7-OH-Coumarin-Glucuronid
# Protocol: as §2, §3
# SULT [4] = assay: DME activity in Caco-2: SULT; format: in vitro ADME, human; details: SULT/7-OH-Coumarin, metabolite 7-OH-Coumarin-Sulfat
# Protocol: as §2, §3
# CYP2D6 [5] = target: T1, CYP2D6 (Homo sapiens, UniProt P10635); assay: DME activity in Caco-2: CYP2D6; format: in vitro ADME; details: CYP2D6/Dextromethorphan, metabolite Dextrorphan
# T1 construct: endogenous in cells; host or cells: Caco-2 cells in 96-well Transwell inserts
# T1 sequence (P10635 whole entry): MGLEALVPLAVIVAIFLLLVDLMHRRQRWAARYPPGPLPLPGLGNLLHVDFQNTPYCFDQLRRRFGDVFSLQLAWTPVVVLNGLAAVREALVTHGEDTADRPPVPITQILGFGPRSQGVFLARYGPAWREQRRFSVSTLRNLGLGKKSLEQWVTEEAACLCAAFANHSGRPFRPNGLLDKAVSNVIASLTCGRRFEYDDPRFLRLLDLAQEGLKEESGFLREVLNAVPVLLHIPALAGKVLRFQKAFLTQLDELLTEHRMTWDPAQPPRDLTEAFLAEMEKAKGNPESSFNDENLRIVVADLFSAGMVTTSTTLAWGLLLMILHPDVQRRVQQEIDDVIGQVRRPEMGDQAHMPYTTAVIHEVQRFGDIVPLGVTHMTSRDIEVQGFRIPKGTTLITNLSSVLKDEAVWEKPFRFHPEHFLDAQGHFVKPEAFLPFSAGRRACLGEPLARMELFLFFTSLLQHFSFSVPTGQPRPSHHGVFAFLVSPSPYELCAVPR
# Protocol: as §2, §3
# CYP2D6 [6] = target: T1, CYP2D6; assay: DME activity in EpiIntestinal microtissues: CYP2D6; format: in vitro ADME; details: CYP2D6/Dextromethorphan, metabolite Dextrorphan
# Protocol: as §2, §3
# [7] = human, clinical; cited from earlier work
# in vitro = details: human, blood
# Description: Blood CLb can be converted from plasma clearance CLp with the blood-to-plasma ratio RB: CLb=CLp/RB
# BCRP = assay: Bidirectional permeability assay in Caco-2; format: in vitro ADME, human; details: human, pH 7.4, with Ko-143 (3 µM), with BCRP inhibitor Ko-143 (3 µM)
# Caco-2 cells = assay: Bidirectional permeability assay in Caco-2; format: in vitro ADME, human; details: with P-gp inhibitor Zosuqidar (5 µM)
# P-gp = assay: Bidirectional permeability assay in Caco-2; format: in vitro ADME, human; details: human, pH 7.4, with Zosuqidar (5 µM), with P-gp inhibitor Zosuqidar (5 µM)
# [8] = Bidirectional permeability assay in Caco-2; format: in vitro ADME, human; details: human, no inhibitor, mean of duplicates
# [9] = tested on: EpiIntestinal microtissues; assay: Bidirectional permeability assay in EpiIntestinal microtissues; format: in vitro ADME, human
# Protocol: Caco-2 cells were obtained from Leibniz Institute DSMZ-German Collection of Microorganisms and Cell Cultures (Braunschweig, Germany) and cultured in DMEM containing 10% FCS, 1% NEAA, 2 mM Glutamin, 100 U/mL Penicillin and 100 µg/mL Streptomycin. […] EpiIntestinal microtissues were obtained from MatTek (Bratislav, Slovakia) and cultured according to the manufacturer’s instruction (24-well format for bidirectional permeability assays and GI firstpass availability assays and 96-well format for screening of DME activities).
# Bidirectional permeability assays were performed as described previously. […] In indicated experiments, inhibitors were added to both compartments. Cells were incubated with the compounds for up to 2 h. Samples from the opposite compartment were taken at different timepoints. […] Prior to bioanalysis samples were spiked with internal standard solution and diluted with acetonitrile (ACN) for protein precipitation. Measurement was operated in multiple reaction monitoring (MRM) mode. Quantification was performed using external calibration. Apparent permeability coefficients in the apical to basal direction (Papp,AB) and in the basal to apical direction (Papp,BA) and efflux were calculated as follows Papp,AB=QAB/(C0×s×t) Papp,BA=QBA/(C0×s×t) Efflux=Papp,BA/Papp,AB where Q is the amount of compound recovered in the receiver compartment after the incubation time t, C0 the initial compound concentration given to the donor compartment, and s the surface area of the Transwell inserts. Efflux ratio is calculated as the quotient of Papp,BA to Papp,AB. […] In addition, Transepithelial electrical resistance (TEER) values are measured for each plate before the permeability assay and total recovery in donor and receiver compartments was determined for each compound. All these parameters (efflux of apafant, Papp values of the low permeable compound, TEER values, and total recovery) are used to ensure the quality of the assays.
# [10] = Intestinal first-pass availability in EpiIntestinal microtissues; format: in vitro ADME, human; details: human, EpiIntestinal microtissues, 10 µM apical, GI firstpass availability, read-out: Recovery in Basal Comp. @ 24h (%)
# Protocol: Compounds were diluted in culture media to a final concentration of 10 µM and added to the apical (donor) compartment (total volume: 100 µL for EpiIntestinal and 200 µL for Caco-2). After the incubation at 37 °C for 2, 4, 6, and 24 h, samples (50 µL) were taken from the basal (receiver) compartment (total volume: 5000 µL for EpiIntestinal and 800 µL for Caco-2). After the last timepoint, samples from the donor compartments and the cell lysates were also collected. Compound concentrations in the samples were determined by HPLC-MS/MS (Section 2.3).
# GI first-pass availability of the tested compounds was expressed as fraction (%) of the total amount of a compound added to the donor compartment recovered in the receiver compartment.
# CES1 and CES2 [11] = assay: CES-mediated metabolism of dabigatran etexilate in Caco-2 cells; format: in vitro ADME, human; details: Caco-2 on Transwell; 10 µM apical; basal compartment
# Protocol: (§1) CES-mediated metabolism of dabigatran etexilate was measured in cryopreserved human hepatocytes (BioIVT, West Sussex, UK) and cryopreserved human intestinal mucosa (in vitro ADMET laboratories, Columbia, MD, USA) in suspension and in Caco-2 cells and EpiIntestinal microtissues grown on Transwell inserts. Dabigatran etexilate was diluted in culture media for the respective cells or tissues. The final concentrations of dabigatran etexilate were selected in an earlier experiment to ensure reasonable turnover of the compound within the incubation time: 2 µM for hepatocytes and intestinal mucosa, 10 µM for Caco-2 and EpiIntestinal microtissues. In the experiments with Transwell inserts, dabigatran etexilate was given to the apical compartments, metabolites were measured in the basal (receiver) compartments. Concentrations of the metabolites were determined by HPLC-MS/MS (Section 2.3).
# CES1 and CES2 [12] = assay: CES-mediated metabolism of dabigatran etexilate in human intestinal mucosa (HIM); format: in vitro ADME; details: human intestinal mucosa in suspension; 2 µM
# Protocol: as §1
# CES1 and CES2 [13] = assay: CES-mediated metabolism of dabigatran etexilate in EpiIntestinal microtissues; format: in vitro ADME, human; details: EpiIntestinal on Transwell; 10 µM apical; basal compartment
# Protocol: as §1
# CES1 and CES2 [14] = assay: CES-mediated metabolism of dabigatran etexilate in human hepatocytes (huHEP); format: in vitro ADME; details: human hepatocytes in suspension; 2 µM
# Protocol: as §1
# [15] = with BCRP inhibitor Ko-143 (3 µM)
# [16] = with P-gp inhibitor Zosuqidar (5 µM)
smiles,measurement,setting,value
O=c1ccc2ccc(O)cc2o1 [7-OH-Coumarin],Intracellular Metabolite (% of Total),SULT [1],3.4 % of Total
same,Intracellular Metabolite (% of Total),UGT [2],10.0 % of Total
same,Intracellular Metabolite (% of Total),UGT [3],5.5 % of Total
same,Intracellular Metabolite (% of Total),SULT [4],BLQ
COc1ccc2c(c1)[C@]13CCCC[C@@H]1[C@H](C2)N(C)CC3 [Dextromethorphan],Intracellular Metabolite (% of Total),CYP2D6 [5],BLQ
same,Intracellular Metabolite (% of Total),CYP2D6 [6],BLQ
CC(C)c1nc(N(C)S(C)(=O)=O)nc(-c2ccc(F)cc2)c1/C=C/[C@@H](O)C[C@@H](O)CC(=O)O [Rosuvastatin],F (total oral availability),[7],0.2 [8]
same,fe (fraction of renal excretion),[7],0.3 [23]
same,blood plasma ratio,in vitro,0.75
same,efflux ratio at 10 µM,BCRP,5.5
same,PappAB,Caco-2 cells,0.3 10^−6 cm/s
same,efflux ratio at 10 µM,P-gp,19
same,Papp A→B at 10 µM,"[8]; pH 7.4, 10 µM",0.3 ×10⁻⁶ cm/s
same,efflux ratio at 10 µM,"[8]; pH 7.4, Papp,BA/Papp,AB",21
same,Efflux,"[9]; Papp,BA/Papp,AB, no inhibitor, mean of triplicates",100.0
same,Efflux,[9]; [15],3.1
same,PappAB,[9]; [15],2.6 10^−6 cm/s
same,Efflux,[9]; [16],25
same,PappAB,[9]; [16],0.9 10^−6 cm/s
same,"recovery at 24 h, 10 µM",[10],30%
CCCCCCOC(=O)NC(=N)c1ccc(NCc2nc3cc(C(=O)N(CCC(=O)OCC)c4ccccn4)ccc3n2C)cc1 [dabigatran etexilate],Main metabolite of dabigatran etexilate,CES1 and CES2 [11],BIBR 1087
same,Main metabolite of dabigatran etexilate,CES1 and CES2 [12],BIBR 951
same,Main metabolite of dabigatran etexilate,CES1 and CES2 [13],BIBR 953
same,Main metabolite of dabigatran etexilate,CES1 and CES2 [14],BIBR 1087
